Measurements reported in article PMC11785640, “Structure-based inhibition of acetylcholinesterase and butyrylcholinesterase with 2-Aryl-6-carboxamide benzoxazole derivatives: synthesis, enzymatic assay, and in silico studies” (Molecular Diversity, 2024).

Experiments:
[1] = biological target: BChE (Equus caballus, UniProt P81908); assay: biochemical; assay type: biochemical; conditions: for Ki: from Lineweaver-Burk graphs, mean ± SD, triplicate
Description: (§1) These analogs were dissolved in DMSO at an initial concentration of 1 mg/mL. Around 1% of DMSO was present in the final reaction mixture. Acetylthiocholine iodide (AChI)/butyrylcholine iodide (BChI) were used as substrates for enzymatic reactions. […] The mixture was incubated at 20 °C for 20 min. Then, 50 µL of 5,5’-dithio-bis 2-nitro-benzoic acid (DTNB, 0.5 mM) and AChI/BChI were added and enzymatic reactions were initiated.
(§2) Lineweaver-Burk graphs were used for the calculation of Ki and the other parameters as described in prior studies. The Ki values were taken out from this graph. All analyses were conducted independently in triplicate, and result data are expressed as mean values ± SD [59].

[2] = biological target: AChE (Electrophorus electricus, UniProt O42275); assay: biochemical; assay type: biochemical; conditions: for Ki: from Lineweaver-Burk graphs, mean ± SD, triplicate; for Selectivity index (AChE/BChE): ratio AChE/BChE
Description: as §1, §2

BChE, sequence (P81908 whole entry): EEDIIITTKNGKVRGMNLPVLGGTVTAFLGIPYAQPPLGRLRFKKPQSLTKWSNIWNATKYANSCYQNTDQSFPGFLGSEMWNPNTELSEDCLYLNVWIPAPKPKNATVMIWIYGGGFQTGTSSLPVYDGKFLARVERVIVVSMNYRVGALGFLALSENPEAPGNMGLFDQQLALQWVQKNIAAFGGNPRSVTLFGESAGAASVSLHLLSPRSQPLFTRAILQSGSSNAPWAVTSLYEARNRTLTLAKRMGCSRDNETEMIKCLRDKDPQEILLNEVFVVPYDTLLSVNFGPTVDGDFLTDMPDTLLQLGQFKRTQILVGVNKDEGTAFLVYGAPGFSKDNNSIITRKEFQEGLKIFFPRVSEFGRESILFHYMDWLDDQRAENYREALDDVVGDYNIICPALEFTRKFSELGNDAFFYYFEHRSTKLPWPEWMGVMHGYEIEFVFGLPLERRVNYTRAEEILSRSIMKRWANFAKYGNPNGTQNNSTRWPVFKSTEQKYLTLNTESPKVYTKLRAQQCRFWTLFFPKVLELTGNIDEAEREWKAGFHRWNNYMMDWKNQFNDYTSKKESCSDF
AChE, sequence (O42275 24-633): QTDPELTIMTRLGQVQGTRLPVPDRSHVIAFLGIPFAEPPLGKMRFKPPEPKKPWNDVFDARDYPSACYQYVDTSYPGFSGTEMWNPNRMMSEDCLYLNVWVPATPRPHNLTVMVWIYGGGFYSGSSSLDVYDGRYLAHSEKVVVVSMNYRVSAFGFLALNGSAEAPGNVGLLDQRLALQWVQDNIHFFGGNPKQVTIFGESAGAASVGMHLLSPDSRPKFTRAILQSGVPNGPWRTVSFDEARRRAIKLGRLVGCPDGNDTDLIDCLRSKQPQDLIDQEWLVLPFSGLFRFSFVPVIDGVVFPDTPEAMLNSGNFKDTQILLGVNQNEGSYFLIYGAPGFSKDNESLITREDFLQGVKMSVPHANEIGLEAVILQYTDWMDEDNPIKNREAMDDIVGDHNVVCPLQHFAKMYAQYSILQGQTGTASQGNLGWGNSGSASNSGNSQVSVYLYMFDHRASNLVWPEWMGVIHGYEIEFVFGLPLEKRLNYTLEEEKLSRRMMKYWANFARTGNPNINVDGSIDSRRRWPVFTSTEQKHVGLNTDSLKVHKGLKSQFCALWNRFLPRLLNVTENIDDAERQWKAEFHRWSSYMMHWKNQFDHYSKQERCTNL

## CCN(CC)C(=O)c1ccc2nc(-c3ccco3)oc2c1 [Compound 38, N,N-diethyl-2-(furan-2-yl)benzo[d]oxazole-6-carboxamide]
[1]
  IC50: 70.4 nM
  Ki: 59.4 ± 8.01 nM
[2]
  IC50: 52.8 nM
  Ki: 41.2 ± 7.41 nM
  Selectivity index (AChE/BChE): 0.69

## CN(C)C(=O)c1ccc2nc(-c3cccs3)oc2c1 [Compound 43, N,Ndimethyl-2-(thiophen-2-yl)benzo[d]oxazole-6-carboxamide]
[1]
  IC50: 130 nM
  Ki: 120 ± 25.7 nM
[2]
  IC50: 29.2 nM
  Ki: 19.9 ± 0.73 nM
  Selectivity index (AChE/BChE): 0.17

## O=C(c1ccc2nc(-c3ccc(-c4ccccc4)cc3)oc2c1)N1CCCC1 [Compound 16, (2-([1,1’-Biphenyl]-4-yl)benzo[d]oxazol-6-yl)(pyrrolidin-1-yl)methanone]
[1]
  IC50: 86.2 nM
  Ki: 84 ± 12.4 nM
[2]
  IC50: 26.3 nM
  Ki: 26.7 ± 5.13 nM
  Selectivity index (AChE/BChE): 0.32

## O=C(c1ccc2nc(-c3ccco3)oc2c1)N1CCCCC1 [Compound 41]
[1]
  IC50: 80.1 nM
  Ki: 75.5 ± 18.4 nM
[2]
  IC50: 25.3 nM
  Ki: 30.7 ± 6.03 nM
  Selectivity index (AChE/BChE): 0.41

## CCN(CC)C(=O)c1ccc2nc(-c3ccccc3)oc2c1 [Compound 8, N,N-diethyl-2-phenylbenzo[d]oxazole-6-carboxamide]
[1]
  IC50: 74 nM
  Ki: 77 ± 5.25 nM
[2]
  IC50: 34 nM
  Ki: 30.6 ± 3.34 nM
  Selectivity index (AChE/BChE): 0.40

## CCN(CC)C(=O)c1ccc2nc(-c3ccc(-c4ccccc4)cc3)oc2c1 [Compound 14]
[1]
  IC50: 84.6 nM
  Ki: 75.3 ± 13.8 nM
[2]
  IC50: 30.8 nM
  Ki: 19.8 ± 3.69 nM
  Selectivity index (AChE/BChE): 0.26

## CCCN(CCC)C(=O)c1ccc2nc(-c3ccccc3)oc2c1 [Compound 9, 2-Phenyl-N,Ndipropylbenzo[d]oxazole-6-carboxamide]
[1]
  IC50: 116 nM
  Ki: 111 ± 4.67 nM
[2]
  IC50: 48.8 nM
  Ki: 59.4 ± 3.69 nM
  Selectivity index (AChE/BChE): 0.53

## CCCN(CCC)C(=O)c1ccc2nc(-c3ccc(-c4ccccc4)cc3)oc2c1 [Compound 15, 2-([1,1’-Biphenyl]-4-yl)-N,N-dipropylbenzo[d]oxazole-6-carboxamide]
[1]
  IC50: 113 nM
  Ki: 95.7 ± 7.32 nM
[2]
  IC50: 40.7 nM
  Ki: 38.2 ± 0.66 nM
  Selectivity index (AChE/BChE): 0.40

## O=C(c1ccc2nc(-c3ccc(-c4ccccc4)cc3)oc2c1)N1CCCCC1 [Compound 17, (2-([1,1’-Biphenyl]-4-yl)benzo[d]oxazol-6-yl)(piperidin-1-yl)methanone]
[1]
  IC50: 58.9 nM
  Ki: 49.2 ± 11.1 nM
[2]
  IC50: 20.6 nM
  Ki: 18.4 ± 3.33 nM
  Selectivity index (AChE/BChE): 0.37

## O=C(c1ccc2nc(-c3cccc4ccccc34)oc2c1)N1CCCC1 [Compound 22]
[1]
  IC50: 124 nM
  Ki: 72.5 ± 5.66 nM
[2]
  IC50: 43 nM
  Ki: 41.9 ± 5.64 nM
  Selectivity index (AChE/BChE): 0.58

## O=C(c1ccc2nc(-c3ccncc3)oc2c1)N1CCOCC1 [Compound 30, Morpholino(2-(pyridin-4-yl)benzo[d]oxazol-6-yl)methanone]
[1]
  IC50: 49.7 nM
  Ki: 45.4 ± 3.04 nM
[2]
  IC50: 24.3 nM
  Ki: 18.3 ± 4.37 nM
  Selectivity index (AChE/BChE): 0.40

## O=C(c1ccc2nc(-c3ccc[nH]3)oc2c1)N1CCCCC1 [Compound 35, (2-(1 H-pyrrol-2-yl)benzo[d]oxazol-6-yl)(piperidin-1-yl)methanone]
[1]
  IC50: 49.2 nM
  Ki: 44.5 ± 7.43 nM
[2]
  IC50: 19 nM
  Ki: 12.3 ± 1.28 nM
  Selectivity index (AChE/BChE): 0.27

## CN(C)C(=O)c1ccc2nc(-c3ccco3)oc2c1 [Compound 37, 2-(Furan-2-yl)-N,N-dimethylbenzo[d]oxazole-6-carboxamide]
[1]
  IC50: 147 nM
  Ki: 123 ± 15.3 nM
[2]
  IC50: 46.4 nM
  Ki: 45.7 ± 4.3 nM
  Selectivity index (AChE/BChE): 0.37

## O=C(c1ccc2nc(-c3ccco3)oc2c1)N1CCOCC1 [Compound 42]
[1]
  IC50: 58.7 nM
  Ki: 48.6 ± 4.55 nM
[2]
  IC50: 21 nM
  Ki: 14.6 ± 3.01 nM
  Selectivity index (AChE/BChE): 0.30

## CCCN(CCC)C(=O)c1ccc2nc(-c3ccco3)oc2c1 [Compound 39, 2-(Furan-2-yl)-N,N-dipropylbenzo[d]oxazole-6-carboxamide]
[1]
  IC50: 82.2 nM
  Ki: 65.2 ± 8.33 nM
[2]
  IC50: 28 nM
  Ki: 38.5 ± 8.48 nM
  Selectivity index (AChE/BChE): 0.59

## CCN(CC)C(=O)c1ccc2nc(-c3ccncc3)oc2c1 [Compound 26, N,Ndiethyl-2-(pyridin-4-yl)benzo[d]oxazole-6-carboxamide]
[1]
  IC50: 76.2 nM
  Ki: 54.4 ± 4.85 nM
[2]
  IC50: 48.1 nM
  Ki: 83.1 ± 1.33 nM
  Selectivity index (AChE/BChE): 1.53

## CN(C)C(=O)c1ccc2nc(-c3ccc(-c4ccccc4)cc3)oc2c1 [Compound 13, 2-([1,1’-Biphenyl]-4-yl)-N,N-dimethylbenzo[d]oxazole-6-carboxamide]
[1]
  IC50: 63.5 nM
  Ki: 65.4 ± 14.1 nM
[2]
  IC50: 33.2 nM
  Ki: 29.8 ± 1.02 nM
  Selectivity index (AChE/BChE): 0.46

## CCCN(CCC)C(=O)c1ccc2nc(-c3cccs3)oc2c1 [Compound 45, N,Ndipropyl-2-(thiophen-2-yl)benzo[d]oxazole-6-carboxamide]
[1]
  IC50: 85.2 nM
  Ki: 72.5 ± 12.6 nM
[2]
  IC50: 30.1 nM
  Ki: 21.8 ± 1.45 nM
  Selectivity index (AChE/BChE): 0.30

## CCN(CC)C(=O)c1ccc2nc(-c3cccc4ccccc34)oc2c1 [Compound 20, N,Ndiethyl-2-(naphthalen-1-yl)benzo[d]oxazole-6-carboxamide]
[1]
  IC50: 174 nM
  Ki: 136 ± 30.7 nM
[2]
  IC50: 53.6 nM
  Ki: 48.5 ± 9.97 nM
  Selectivity index (AChE/BChE): 0.36

## CCN(CC)C(=O)c1ccc2nc(-c3ccc[nH]3)oc2c1 [Compound 32, N,N-diethyl-2-(1 H-pyrrol-2-yl)benzo[d]oxazole-6-carboxamide]
[1]
  IC50: 30.1 nM
  Ki: 23 ± 1.52 nM
[2]
  IC50: 41.7 nM
  Ki: 47.5 ± 9.8 nM
  Selectivity index (AChE/BChE): 2.07

## O=C(c1ccc2nc(-c3ccncc3)oc2c1)N1CCCC1 [Compound 28]
[1]
  IC50: 57.2 nM
  Ki: 52.9 ± 11.7 nM
[2]
  IC50: 40.5 nM
  Ki: 47.9 ± 4.7 nM
  Selectivity index (AChE/BChE): 0.91

## O=C(c1ccc2nc(-c3ccncc3)oc2c1)N1CCCCC1 [Compound 29, Piperidin-1-yl(2-(pyridin-4-yl)benzo[d]oxazol-6-yl)methanone]
[1]
  IC50: 54.1 nM
  Ki: 47.9 ± 8.42 nM
[2]
  IC50: 28 nM
  Ki: 27.4 ± 2.53 nM

## CCN(CC)C(=O)c1ccc2nc(-c3cccs3)oc2c1 [Compound 44, N,N-2-(thiophen-2-yl)benzo[d]oxazole-6-carboxamide]
[1]
  IC50: 75.4 nM
  Ki: 61 ± 11.1 nM
[2]
  IC50: 27.6 nM
  Ki: 15.7 ± 0.85 nM
  Selectivity index (AChE/BChE): 0.27

## O=C(c1ccc2nc(-c3cccs3)oc2c1)N1CCOCC1 [Compound 48, Morpholino(2-(thiophen-2-yl)benzo[d]oxazol-6-yl)methanone]
[1]
  IC50: 33 nM
  Ki: 22.7 ± 3.07 nM
[2]
  IC50: 17.9 nM
  Ki: 10.6 ± 0.58 nM
  Selectivity index (AChE/BChE): 0.47

## O=C(c1ccc2nc(-c3ccc[nH]3)oc2c1)N1CCOCC1 [Compound 36, (2-(1 H-pyrrol-2-yl)benzo[d]oxazol-6-yl)(morpholino)methanone]
[1]
  IC50: 25.4 nM
  type of inhibition, BChE: mixed-type
  Ki: 20.3 ± 1.56 nM
[2]
  IC50: 12.6 nM
  type of inhibition, AChE: mixed-type
  Ki: 7.74 ± 0.75 nM
  Selectivity index (AChE/BChE): 0.38
